{"source": "patent US7745656B2", "about": "“Stable no-delivering compounds” (Duke University, priority 1998, dated 2010)", "system": "E. coli cells (pTC 190)", "assay": "Bacteriostatic test: nitrosylated compound solution sprayed onto E. coli culture plates", "format": "cell-based", "protocol": "Nitrosated 3-mercapto-1,2-propanediol was prepared with TBN bed in the Example 1. The nitrosylated compound was dissolved in 10 mL of deionized water (0.16 M) that had been passed through a CHELEX 100 column and bubbled with argon for 30 minutes. The resulting solution was red.\nE. coli cells (pTC 190) were plated onto the culture plates and grown overnight at 40° C. The E. coli cells contained a plasmid encoding for ampicillin resistance. The solution was then sprayed onto a culture plate (LB/Amp/Glucose).\nThis plate was then sprayed with the nitrosylated compound solution at the 24th hour.", "data": [{"compound": "O=NSCC(O)CO", "note": "(stereo not drawn) [nitrosylated 3-mercapto-1,2-propanediol]", "values": [{"measurement": "Bacterial growth on culture plate sprayed with the compound solution", "setting": "0.16 M in deionized water, compound prepared with TBN, LB/Amp/Glucose plate, read after 24 hours", "result": "growth of a few colonies, all localized on one side of the plate"}, {"measurement": "Bacterial growth on plate with an established E. coli lawn, sprayed at the 24th hour", "setting": "0.16 M solution sprayed on a continuous lawn, read after another 24 hours", "result": "lawn of colonies that was approximately as dense as prior to application"}, {"measurement": "Overall antibacterial result", "setting": "conclusion of Example 3", "result": "bacteriostatic"}]}]}
